This note sets out measurements from patent publication US20260132132A1, “3A,4,5,6-TETRAHYDRO-1 H-PYRAZOLO[3,4-C]PYRIDIN-7(7AH)-ONE DERIVATIVES AS FACTOR XIIA INHIBITORS” (KALVISTA PHARMACEUTICALS LIMITED, priority 2022, published 2026).

The target in one assay is FXa (Homo sapiens, UniProt P00742). Description: Related protease inhibition: FXa, fluorogenic substrate. Type of assay: biochemical. The conditions noted are these: fluorogenic substrate at Km, 25° C.; H1-H3 = % activity at 40 μM. The method, then:
Human serine protease enzyme Plasma Kallikrein, KLK1, FXa, Plasmin, Thrombin and Trypsin were assayed for enzymatic activity using an appropriate fluorogenic substrate at Km concentration, FXIa at fixed substrate concentration of 100 μM and various concentrations of the test compound.

The target of assay [1] is T1, Human Factor XIIa (hFXIIa) (Homo sapiens, UniProt P00748).
T1 construct: purchased Enzyme Research Laboratories
T1 sequence (P00748 373-615 limits assumed): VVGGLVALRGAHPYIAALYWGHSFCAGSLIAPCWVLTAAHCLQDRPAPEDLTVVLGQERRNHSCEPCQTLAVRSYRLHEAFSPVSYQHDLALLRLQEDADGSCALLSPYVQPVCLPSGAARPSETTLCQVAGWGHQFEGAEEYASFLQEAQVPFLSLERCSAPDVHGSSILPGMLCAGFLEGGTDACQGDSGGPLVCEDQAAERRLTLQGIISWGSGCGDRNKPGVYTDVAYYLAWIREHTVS
T1 sequence (P00748 20-372 partner limits assumed): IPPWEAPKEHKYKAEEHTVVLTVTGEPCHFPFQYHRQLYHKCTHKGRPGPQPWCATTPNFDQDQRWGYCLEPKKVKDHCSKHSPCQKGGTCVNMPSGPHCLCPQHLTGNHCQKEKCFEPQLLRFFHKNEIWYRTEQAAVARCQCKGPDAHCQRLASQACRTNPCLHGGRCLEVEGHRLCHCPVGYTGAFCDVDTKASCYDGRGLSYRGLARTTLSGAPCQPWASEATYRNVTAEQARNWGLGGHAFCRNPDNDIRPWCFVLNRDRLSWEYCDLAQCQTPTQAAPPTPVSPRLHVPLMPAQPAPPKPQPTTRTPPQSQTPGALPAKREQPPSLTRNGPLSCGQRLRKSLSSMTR
Nature of the assay: Determination of Human Factor XIIa (hFXIIa) inhibition, fluorogenic substrate IC50 assay. The class given is biochemical. To be noted: fluorogenic substrate H-DPro-Phe-Arg-AFC at Km, 25° C., read-out: Human FXIIa IC50. The method, then:
Determination of Human Factor XIIa (hFXIIa) inhibition
The Km for the cleavage of the substrate by hFXIIa was determined by standard transformation of the Michaelis-Menten equation, with subsequent inhibition assays performed at substrate Km concentration.

By IC50 is commonly meant the midpoint of a concentration-inhibition curve.

FXa, sequence (P00742 235-488 limits assumed): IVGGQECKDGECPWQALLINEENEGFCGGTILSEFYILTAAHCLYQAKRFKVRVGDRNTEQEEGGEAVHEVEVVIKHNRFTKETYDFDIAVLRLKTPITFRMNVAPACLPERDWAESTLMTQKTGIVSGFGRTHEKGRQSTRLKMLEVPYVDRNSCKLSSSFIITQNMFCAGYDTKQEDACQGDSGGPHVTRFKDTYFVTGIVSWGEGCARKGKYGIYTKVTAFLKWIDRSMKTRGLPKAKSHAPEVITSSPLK
FXa, sequence (P00742 41-179 partner limits assumed): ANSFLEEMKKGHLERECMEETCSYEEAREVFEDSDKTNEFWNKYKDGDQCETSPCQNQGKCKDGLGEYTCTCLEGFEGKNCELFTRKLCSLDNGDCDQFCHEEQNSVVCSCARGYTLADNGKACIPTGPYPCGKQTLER

Regarding `CN1CCc2ccc(N3CCc4c(COCC(=O)O)nn(-c5cccc(Cl)c5)c4C3=O)cc2C1=O` [Example 1358, 2-((1-(3-chlorophenyl)-6-(2-methyl-1-oxo-1,2,3,4-tetrahydroisoquinolin-7-yl)-7-oxo-4,5,6,7-tetrahydro-1H-pyrazolo[3,4-c]pyridin-3-yl)methoxy)acetic acid], the IC50 against FXa was 3 to 10 µM; in assay [1] it was 1 to 3 µM.

For the molecule `Cc1cc(CNC(=O)c2nn(-c3cccc(Cl)c3)c3c2CCN(c2ccc4c(c2)CCN(C)C4=O)C3=O)nn1C` [Example 1205, 1-(3-chlorophenyl)-N-((1,5-dimethyl-1H-pyrazol-3-yl)methyl)-6-(2-methyl-1-oxo-1,2,3,4-tetrahydroisoquinolin-6-yl)-7-oxo-4,5,6,7-tetrahydro-1H-pyrazolo[3,4-c]pyridine-3-carboxamide], the half-inhibitory concentration (IC50) against FXa is above 40 µM; in assay [1], 10 to 40 µM.

As for `Cc1cn(C)nc1CNC(=O)c1nn(-c2cccc(Cl)c2)c2c1CCN(c1ccc3c(c1)C(=O)N(C)CC3)C2=O` [Example 1225, 1-(3-chlorophenyl)-N-((1,4-dimethyl-1H-pyrazol-3-yl)methyl)-6-(2-methyl-1-oxo-1,2,3,4-tetrahydroisoquinolin-7-yl)-7-oxo-4,5,6,7-tetrahydro-1H-pyrazolo[3,4-c]pyridine-3-carboxamide], the IC50 lay within 10 to 40 µM on FXa and 0.1 to 0.3 µM in assay [1].

For the molecule `CCNC(=O)c1nn(-c2cccc(Cl)c2)c2c1CCN(c1cccc(N3CC4CC4C3=O)c1)C2=O` (centres unmarked) [Example 1368, 1-(3-chlorophenyl)-N-ethyl-7-oxo-6-(3-(2-oxo-3-azabicyclo[3.1.0]hexan-3-yl)phenyl)-4,5,6,7-tetrahydro-1H-pyrazolo[3,4-c]pyridine-3-carboxamide], the IC50 against FXa was above 40 µM; in assay [1], 1 to 3 µM.

`O=C(NCC1CC1)c1nn(-c2cccc(Cl)c2)c2c1CCN(c1cc3c(cc1F)CCN(CCO)C3)C2=O` [Example 1123, 1-(3-chlorophenyl)-N-(cyclopropylmethyl)-6-(6-fluoro-2-(2-hydroxyethyl)-1,2,3,4-tetrahydroisoquinolin-7-yl)-7-oxo-4,5,6,7-tetrahydro-1H-pyrazolo[3,4-c]pyridine-3-carboxamide]: the IC50 at FXa was above 40 µM; in assay [1], 0.1 to 0.3 µM.

On to `Cc1cc(CNC(=O)c2nn(-c3cccc(Cl)c3)c3c2CCN(c2ccc4c(c2)N(C)C(=O)CC4)C3=O)nn1C` [Example 1208, 1-(3-chlorophenyl)-N-((1,5-dimethyl-1H-pyrazol-3-yl)methyl)-6-(1-methyl-2-oxo-1,2,3,4-tetrahydroquinolin-7-yl)-7-oxo-4,5,6,7-tetrahydro-1H-pyrazolo[3,4-c]pyridine-3-carboxamide], for which the values for the IC50 (on FXa; in assay [1]) were 10 to 40 µM and 1 to 3 µM, respectively.

Take `O=C(NCc1ccccc1)c1nn(-c2cccc(Cl)c2)c2c1CCN(c1cccc(CN3CCCCC3)c1)C2=O` [Example 1001, N-Benzyl-1-(3-chlorophenyl)-7-oxo-6-(3-(piperidin-1-ylmethyl)phenyl)-4,5,6,7-tetrahydro-1H-pyrazolo[3,4-c]pyridine-3-carboxamide]: the IC50 against FXa was above 40 µM; in assay [1], 0.1 to 0.3 µM.

On to `Cc1ccnnc1CNC(=O)c1nn(-c2cccc(Cl)c2)c2c1CCN(c1ccc3c(c1)C(=O)N(C)CC3)C2=O` [Example 1310, 1-(3-chlorophenyl)-6-(2-methyl-1-oxo-1,2,3,4-tetrahydroisoquinolin-7-yl)-N-((4-methylpyridazin-3-yl)methyl)-7-oxo-4,5,6,7-tetrahydro-1H-pyrazolo[3,4-c]pyridine-3-carboxamide], for which the IC50 against FXa fell in the range of 10 to 40 µM; in assay [1] it was 0.3 to 1 µM.

Take `CCNC(=O)c1nn(-c2cccc(Cl)c2)c2c1CCN(c1cccc(N3CCC4(CC4)C3=O)c1)C2=O` [Example 1400, 1-(3-chlorophenyl)-N-ethyl-7-oxo-6-(3-(4-oxo-5-azaspiro[2.4]heptan-5-yl)phenyl)-4,5,6,7-tetrahydro-1H-pyrazolo[3,4-c]pyridine-3-carboxamide]: the IC50 on FXa is above 40 µM; in assay [1], 1 to 3 µM.

With `O=C(NCC1CC1)c1nn(-c2cccc(Cl)c2)c2c1CCN(c1cc3c(cn1)CCN(CCO)C3)C2=O` [Example 1118, 1-(3-chlorophenyl)-N-(cyclopropylmethyl)-6-(6-(2-hydroxyethyl)-5,6,7,8-tetrahydro-2,6-naphthyridin-3-yl)-7-oxo-4,5,6,7-tetrahydro-1H-pyrazolo[3,4-c]pyridine-3-carboxamide], the IC50 against FXa was above 40 µM; in assay [1], 0.1 to 0.3 µM.

For `CCNC(=O)c1nn(-c2cccc(Cl)c2)c2c1CCN(c1cccc(N3C(=O)CC[C@H]3C)c1)C2=O` [Example 1397, (R)-1-(3-chlorophenyl)-N-ethyl-6-(3-(2-methyl-5-oxopyrrolidin-1-yl)phenyl)-7-oxo-4,5,6,7-tetrahydro-1H-pyrazolo[3,4-c]pyridine-3-carboxamide], the IC50 against FXa is above 40 µM; in assay [1], 10 to 40 µM.

On to `Cc1cn(C)nc1CNC(=O)c1nn(-c2cccc(Cl)c2)c2c1CCN(c1ccc3c(c1)CN(CCO)CC3)C2=O` [Example 1157, 1-(3-chlorophenyl)-N-((1,4-dimethyl-1H-pyrazol-3-yl)methyl)-6-(2-(2-hydroxyethyl)-1,2,3,4-tetrahydroisoquinolin-7-yl)-7-oxo-4,5,6,7-tetrahydro-1H-pyrazolo[3,4-c]pyridine-3-carboxamide], for which the values for the IC50 (on FXa; in assay [1]) were 10 to 40 µM and 0.01 to 0.1 µM, respectively.

Regarding `Cc1ccncc1CNC(=O)c1nn(-c2cccc(Cl)c2)c2c1CCN(c1ccc3c(c1)CN(C)CC3)C2=O` [Example 1129, 1-(3-chlorophenyl)-6-(2-methyl-1,2,3,4-tetrahydroisoquinolin-7-yl)-N-((4-methylpyridin-3-yl)methyl)-7-oxo-4,5,6,7-tetrahydro-1H-pyrazolo[3,4-c]pyridine-3-carboxamide], the IC50 lay within 3 to 10 µM against FXa and 0.01 to 0.1 µM in assay [1].

As for `Cc1c[nH]nc1CNC(=O)c1nn(-c2cccc(Cl)c2)c2c1CCN(c1ccc3c(c1)C(=O)N(C)CC3)C2=O` [Example 1248, 1-(3-chlorophenyl)-6-(2-methyl-1-oxo-1,2,3,4-tetrahydroisoquinolin-7-yl)-N-((4-methyl-1H-pyrazol-3-yl)methyl)-7-oxo-4,5,6,7-tetrahydro-1H-pyrazolo[3,4-c]pyridine-3-carboxamide], the IC50 is 10 to 40 µM against FXa and 0.1 to 0.3 µM in assay [1].

On to `Cc1cc(CNC(=O)c2nn(-c3cccc(Cl)c3)c3c2CCN(c2ccc4c(c2)C(=O)N(C)[C@H](CO)CO4)C3=O)nn1C` [Example 1351, (R)-1-(3-chlorophenyl)-N-((1,5-dimethyl-1H-pyrazol-3-yl)methyl)-6-(3-(hydroxymethyl)-4-methyl-5-oxo-2,3,4,5-tetrahydrobenzo[f][1,4]oxazepin-7-yl)-7-oxo-4,5,6,7-tetrahydro-1H-pyrazolo[3,4-c]pyridine-3-carboxamide], for which the half-maximal inhibitory concentration (IC50) on FXa is above 40 µM; in assay [1] it was 3 to 10 µM.

Take `CN1CCc2ccc(N3CCc4c(C(=O)NC5CCC5)nn(-c5cccc(Cl)c5)c4C3=O)cc2C1=O` [Example 1346, 1-(3-chlorophenyl)-N-cyclobutyl-6-(2-methyl-1-oxo-1,2,3,4-tetrahydroisoquinolin-7-yl)-7-oxo-4,5,6,7-tetrahydro-1H-pyrazolo[3,4-c]pyridine-3-carboxamide]: the IC50 was above 40 µM at FXa and 0.3 to 1 µM in assay [1].

On to `Cc1c(Cl)c(CNC(=O)c2nn(-c3cccc(Cl)c3)c3c2CCN(c2ccc4c(c2)C(=O)N(CC(N)=O)CCO4)C3=O)nn1C` [Example 1394, 6-(4-(2-amino-2-oxoethyl)-5-oxo-2,3,4,5-tetrahydrobenzo[f][1,4]oxazepin-7-yl)-N-((4-chloro-1,5-dimethyl-1H-pyrazol-3-yl)methyl)-1-(3-chlorophenyl)-7-oxo-4,5,6,7-tetrahydro-1H-pyrazolo[3,4-c]pyridine-3-carboxamide], for which the IC50 is 0.3 to 1 µM against FXa and 0.01 to 0.1 µM in assay [1].

For the molecule `CCNC(=O)c1nn(-c2cccc(Cl)c2)c2c1CCN(c1cccc(N3CCCOC3=O)c1)C2=O` [Example 1363, 1-(3-chlorophenyl)-N-ethyl-7-oxo-6-(3-(2-oxo-1,3-oxazinan-3-yl)phenyl)-4,5,6,7-tetrahydro-1H-pyrazolo[3,4-c]pyridine-3-carboxamide], the IC50 on FXa is above 40 µM; in assay [1], 3 to 10 µM.

On to `CN1CCc2ccc(N3CCc4c(C(=O)NCC(=O)O)nn(-c5cccc(Cl)c5)c4C3=O)cc2C1=O` [Example 1341, (1-(3-chlorophenyl)-6-(2-methyl-1-oxo-1,2,3,4-tetrahydroisoquinolin-7-yl)-7-oxo-4,5,6,7-tetrahydro-1H-pyrazolo[3,4-c]pyridine-3-carbonyl)glycine], for which the figures for the IC50 (against FXa; in assay [1]) were 10 to 40 µM and 0.3 to 1 µM, respectively.
